This is an account of results in patent publication US11111484B2, “Streptococcus bacteriophage lysins for detection and treatment of gram positive bacteria” (priority 2011, dated 2021).

Structures are written as SMILES.

One assay relates to MRSA strain MW2. The assay is described as follows: resistance assay, exposure to incrementally increasing concentrations. The format is cell-based, Staphylococcus aureus. As to conditions: concentration doubled daily from 1/32 to 4× MIC over 8 days.
The next assay relates to MSSA strain 8325. The description is as above. The format is cell-based, Staphylococcus aureus. As to conditions: MSSA 8325; concentration doubled daily from 1/32 to 4× MIC over 8 days.

Consider `C/C(=C\C(=O)OCCCCCCCCC(=O)O)C[C@@H]1OC[C@H](C[C@@H]2O[C@H]2[C@@H](C)[C@H](C)O)[C@@H](O)[C@H]1O` [mupirocin, reference compound], for which the development of resistance result in the assay with MRSA strain MW2 and with MSSA strain 8325 was “developed resistance” each time.
